Assay results published in a melting point compilation (Tetko et al.; mined from patent text by program, amines drawn as free bases though some values may be those of a salt).

melting point [°C]	Structure (SMILES)
167 to 168	OC(c1ccc(Cl)cc1)(c1ccc(Cl)cc1)c1nccn1Cc1ccccc1
72	CN(CCO)c1ccc(C=O)cc1
97	CCCCC(CC)CNCCCOc1ccc2ccccc2c1 (centres undefined)
138 to 139	OCCNC(=S)Nc1cccc2ccoc12
110 to 112	CCOc1cc2cc(OC)c(OC)cc2c(Cc2ccc(OC)c(OC)c2)n1
> 300	NC(=O)CC1Cc2cc(Br)cc3[nH]c(=O)c(=O)n1c23 (centres undefined)
95 to 96.5	CC(C)(C)OC(=O)NCc1cccc(CC(=O)O)c1
142 to 146	COc1cc(Cn2c(-c3ccc(O)cc3)c(C)c3cc(O)ccc32)ccc1OCCN1CCCCCC1
86 to 90	CCCCCCCCCCCCCCOc1cccc(CC(=O)Nc2cccc(CO)c2)c1
172 to 173	CC(O)CNCc1cc2c(=O)c(C(=O)NCc3ccc(Cl)cc3)cn(C)c2o1 (centres undefined)
258 to 260	NC(=O)c1[nH]c2ccc(Cl)cc2c1S(=O)(=O)c1cc(Cl)cc(Cl)c1
108 to 110	CC1(C)C=C(c2ncccn2)c2cc(C#N)ccc2O1
51	CC(C)(C)c1ncc(OCc2ccccc2)c(Cl)n1
97	CCOC(=O)C(C(=O)OCC)N1CS(=O)c2c(C)cc([N+](=O)[O-])cc21 (centres undefined)
232 to 235	NC(=O)C(OCC1c2ccccc2-c2ccccc21)c1ccc(C(=O)O)cc1 (centres undefined)
249 to 251	O=c1ccc(-c2ccc(Cl)c(C(F)(F)F)c2)n[nH]1
135 to 136	Nc1nccc(OCc2ccccc2)c1N
130 to 132	CCCN1CCN(c2cccc3ccc(NC(=O)c4ccc(Cl)cc4)cc23)CC1
43 to 46	CCCCCCCCCCCCNC(=O)CSCc1cc(C(C)(C)C)c(O)c(C(C)(C)C)c1
160 to 162	CC(=S)NCC1CN(c2ccc(-n3cnc(Cn4ccnc4)c3)c(F)c2)C(=O)O1 (centres undefined)
32 to 33	CN1CCN(C)CCN2CCOCCOCCN(CC1)CCN(C)CCN(C)CC2
268 to 270	CC(SSc1ccccc1C(=O)Nc1ccc(S(N)(=O)=O)cc1)C(=O)O (centres undefined)
89 to 91	O=C1CC(O)CC(/C=C/c2ccccc2-c2ccccc2)O1 (centres undefined)

melting point [°C]	Structure (SMILES)
182 to 184	O=c1cc(CBr)c2ccc(O)cc2o1
166	SCCNc1nc(-c2ccccc2)c2cc(Cl)ccc2n1
> 275	N#Cc1cccc(-c2nc(Nc3ccc(C(=O)O)cc3)sc2-c2ccnnc2)c1
69	O=C(C1CCCC1)[C@H]1CCn2c(cc3ccccc32)C1
179 to 182	COc1ccc(-c2cccc3nc(Nc4cc(OC)c(OC)c(OC)c4)oc23)cc1
140 to 142	CC(C)c1cccc(C(C)C)c1NC(=O)CN1CC2(CCCCC2)N(c2ccccc2)S1(=O)=O
150	Cn1c([N+](=O)[O-])cnc1COc1ccc([N+](=O)[O-])cc1
290	CCOC(=O)c1n[nH]c2c(=O)[nH]c3cc(Cl)ccc3c(=O)c12
98 to 99	CSc1ccc(-c2cc(Br)nn2-c2ccc(F)cc2)cc1
108	CCC1(CC)OC(C(=O)O)Oc2ccc(Cl)cc21 (centres undefined)
94 to 95	CC(C)=CCCC(C)=CCc1c(-c2ccc(O)cc2O)oc2cc(O)cc(O)c2c1=O
86 to 87	CCCCCCCCCCCCCCCCc1nc(N(C)C)nc(C)c1O
112 to 113	CC(C)(C)OC(=O)N(CC#N)CCN(CC#N)C(=O)OC(C)(C)C
98.4	CSc1cc(-c2ccc(Cl)cc2)nc(-c2cccc(Cl)c2)c1
105 to 106	CCOC(=O)NNC(=O)NCCCCl
258 to 260	CNC(=O)Nc1ccc(N2CCN(c3ccncc3)CC2)cc1
109 to 111	COc1ccc(-c2nc(COc3cccc([N+](=O)[O-])c3)c(C)o2)cc1
209	COc1ccc(Nc2nc(N)nc3[nH]c4ccccc4c23)cc1
118 to 120	CCOC1(OCC)C[C@@H](C(=O)O)[C@@H]1C(=O)O (relative stereo)
189 to 192	N#Cc1ccc(CN2CCC(N3C(=O)Nc4ccccc4C3c3ccccc3)CC2)cc1 (centres undefined)
220	Cc1csc2[nH]c(=O)oc(=O)c12
234	O=C1NCCc2c(-c3ccccc3CCCO)[nH]c3cccc1c23
166 to 167	Cc1nc(NC(=O)Nc2ccc(N3CCN(C(=O)Nc4ccc(OCCO)cc4C(F)(F)F)CC3)cc2)sc1C

melting point [°C]	Structure (SMILES)
251 to 252	COc1ccc2c(c1)c(-c1ccccc1)nc1nnc(C)n12
80 to 82	CCCCCCCCCCCCOCC(COCCCCCCCCCCCC)(CC(=O)O)CC(=O)O
177 to 178	COc1ccc(C(=O)Nc2ccccc2)cc1NC(=S)Nc1cccc(C(F)(F)F)c1
192 to 194	COc1c(N)nc(-c2ccc(Cl)c(F)c2F)nc1C(=O)NO
328 to 329	FC(F)(F)c1cc(Cl)c(-c2nc(Br)c(Br)[nH]2)c(Cl)c1
158 to 160	COc1ccc(CN2CCc3cc(O)ccc3C2)cc1
216 to 218	O=c1[nH]c2occc2c2ccccc12
189 to 192	CC1=NN(c2cc(-c3ccnc(Nc4cccc(Cl)c4)n3)ccn2)C(=O)CC1
155	COc1ccc(CN(C)CCCc2ccc(NC(=O)c3cccc4c(=O)c5ccccc5[nH]c34)cc2)cc1
110 to 111	CC(=O)C(=O)CCCCCCOc1ccc(-c2ccccc2)cc1
209 to 210	COc1cc(COc2nn(-c3ccccc3)cc2C(=O)O)ccc1OCc1nc(-c2ccccc2)oc1C
167 to 169	Cc1cc(N2C(=O)c3ccccc3C2=O)c(C)cc1N
91 to 92	O=C(CCCBr)N1CC(c2ccc(Cl)cc2)Sc2ccccc21 (centres undefined)
139 to 140	CCOC(=O)c1ncc2[nH]c3cccc(CO)c3c2c1COC
78 to 81	O=C(O)C(O)CCCCCc1ccc(Cl)cc1 (centres undefined)
82 to 84.5	COC(=O)CCC(=O)c1ccc(C)cc1OCC(O)CNC(C)(C)C (centres undefined)
122	C=CC(=O)c1ccc(OC(=O)c2ccc(C#N)cc2)cc1
135 to 140	CN(C)c1ccc(-c2nnc(-c3ccccc3)o2)cc1
135 to 139	CCOC(=O)[C@H](CCC1CCCCC1)N[C@H]1COc2ccccc2N(CC(=O)O)C1=O
37 to 38	Cc1cc(C#N)cc(C)c1OCCCc1ccc(CO)o1
191 to 195	CN(CCO)c1nccc(-c2ccncc2)n1
105 to 108	CCCCOC(=O)NC1C(=O)N(OCC(=O)OC(c2ccccc2)c2ccccc2)C1C (centres undefined)
225 to 228	O=C(O)Cc1c(C(=O)C2CCC2)[nH]c2cc(Cl)ccc12

Structure (SMILES)	melting point [°C]
CCC1CC2C3CCC4=CC(=O)CCC4C3CCC2(C)C1OC(=O)COC(C)=O (centres undefined)	98 to 100
CO[C@]12C[C@@H](CN3CCC(O)(c4ccc(Cl)c(C(F)(F)F)c4)CC3)CN(C)[C@@H]1Cc1c[nH]c3cccc2c13	143 to 146
CNC(=O)ON=C1Oc2ccccc2OC1(C)C	174 to 176
N#Cc1ccc(N2C(=O)NC(=Cc3ccccc3O)C2=O)c2ccccc12	146 to 149
CC(c1ccc(F)cc1)n1c(NC2CCN(CCc3ccccc3)CC2)nc2ccccc21 (centres undefined)	162
